Measurements published in patent US12410160B2 (Gilead Sciences, Inc., priority 2021, dated 2025).

target: human KHK-A (Homo sapiens (Human), UniProt P50053); test: KHK Biochemical Assay (IC50), ADP-Glo, KHK-A; conditions: average of at least two separate assays
Description: (§1) The His-tagged fusion protein was expressed using BL21 (DE3) with IPTG induction and purified using Ni-NTA column followed by dialysis into final buffer containing 25 mM Tris-HCl pH 8.0, 250 mM NaCl.
(§2) KHK Biochemical Assay (IC50)
(§3) Compounds were tested for KHK enzyme inhibition in a high-throughput 384-well assay format using the ADP-Glo assay (Promega) in buffer consisting of 50 mM Hepes (pH 7.4), 140 mM KCl, 5 mM MgCl2 and 0.01% Triton-X. 0.2 nM. […] Compounds were serially diluted (1:3) in DMSO.
(§4) The compounds were pre-incubated with 5 μL of 2× final enzyme concentration for 30 minutes before adding 5 μL of 2× final concentration of ATP and fructose. The plates were incubated at room temperature for 4 hours before adding ADP-Glo reagent to quench the enzyme reaction, followed by incubation at room temperature for 1 hour. The ADP-Glo detection reagent was then added to the plates and luminescence was measured on the Envision plate reader after 1 hour.

human KHK-A, sequence (P50053 other isoform, or with tags, fused parts or gaps): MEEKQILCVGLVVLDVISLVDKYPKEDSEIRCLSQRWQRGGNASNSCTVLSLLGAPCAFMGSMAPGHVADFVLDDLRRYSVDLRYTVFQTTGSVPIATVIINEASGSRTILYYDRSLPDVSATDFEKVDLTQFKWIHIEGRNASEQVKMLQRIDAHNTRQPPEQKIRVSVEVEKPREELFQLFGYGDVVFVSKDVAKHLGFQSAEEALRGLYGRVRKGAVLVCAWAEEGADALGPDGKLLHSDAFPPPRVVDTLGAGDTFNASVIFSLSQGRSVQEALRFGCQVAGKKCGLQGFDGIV

Molecule	IC50
2-(3-(7,7-difluoro-2-((2S,3R)-3-hydroxy-2-methylazetidin-1-yl)-6,7-dihydro-5H-cyclopenta[d]pyrimidin-4-yl)phenylsulfonimidoyl)acetonitrile [Example 628]	10.3 nM

target: human KHK-C (Homo sapiens (Human), UniProt P50053); test: KHK Biochemical Assay (IC50), ADP-Glo, KHK-C; conditions: not given
Description: as §1, §2, §3, §4

human KHK-C, sequence (P50053 whole entry): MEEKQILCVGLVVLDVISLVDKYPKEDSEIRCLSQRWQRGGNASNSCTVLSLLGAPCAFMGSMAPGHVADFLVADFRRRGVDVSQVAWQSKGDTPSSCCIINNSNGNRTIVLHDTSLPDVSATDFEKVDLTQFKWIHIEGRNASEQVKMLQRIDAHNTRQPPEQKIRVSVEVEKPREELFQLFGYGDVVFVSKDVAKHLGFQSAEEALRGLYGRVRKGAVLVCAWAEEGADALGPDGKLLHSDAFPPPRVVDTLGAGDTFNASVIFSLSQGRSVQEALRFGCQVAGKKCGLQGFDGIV

IC50	Molecule
13100 nM	C[C@H]1CCN1c1nc(N2CC3CC3C2)cc(C(F)(F)F)n1 (stereo partly drawn) [Reference Compound 1b, 3-(2-((S)-2-methylazetidin-1-yl)-6-(trifluoromethyl)pyrimidin-4-yl)-3-azabicyclo[3.1.0]hexane, reference compound]

same assay, conditions: ADP-Glo; average of at least two separate assays

IC50	Molecule
26.7 nM	C[C@H]1CCN1c1nc2c(c(-c3ccc4c(cnn4C(=O)CN)c3)n1)CCC2 [Example 237, (S)-2-amino-1-(5-(2-(2-methylazetidin-1-yl)-6,7-dihydro-5H-cyclopenta[d]pyrimidin-4-yl)-1H-indazol-1-yl)ethan-1-one]
68.3 nM	C[C@H]1CCN1c1nc2c(c(-c3ccc4nn(C(=O)CN)cc4c3)n1)CCC2 [Example 238, (S)-2-amino-1-(5-(2-(2-methylazetidin-1-yl)-6,7-dihydro-5H-cyclopenta[d]pyrimidin-4-yl)-2H-indazol-2-yl)ethan-1-one]
2.5 nM	C[C@H]1[C@H](O)CN1c1nc(-c2ccc3c(c2)S(=N)(=O)CCO3)c2c(n1)C(F)(F)CC2 (stereo partly drawn) [Example 818, (2S,3R)-1-[7,7-difluoro-4-(4-imino-4-oxo-2,3-dihydro-1,4λ^6-benzoxathiin-6-yl)-5,6-dihydrocyclopenta[d]pyrimidin-2-yl]-2-methyl-azetidin-3-ol]

Molecule	IC50
C[C@H]1[C@H](O)CN1c1nc(-c2ccc3c(c2)CC(C)(C)C3NS(C)(=O)=O)c2c(n1)C(F)(F)CC2 (stereo partly drawn) [Example 816, N-[5-[7,7-difluoro-2-[(2S,3R)-3-hydroxy-2-methyl-azetidin-1-yl]-5,6-dihydrocyclopenta[d]pyrimidin-4-yl]-2,2-dimethyl-indan-1-yl]methanesulfonamide]	23.4 nM

same assay, conditions: average of at least two separate assays

Molecule	IC50
2-(3-(7,7-difluoro-2-((2S,3R)-3-hydroxy-2-methylazetidin-1-yl)-6,7-dihydro-5H-cyclopenta[d]pyrimidin-4-yl)phenylsulfonimidoyl)acetonitrile [Example 628]	8.8 nM
5-(7,7-difluoro-2-((2S,3R)-3-hydroxy-2-methylazetidin-1-yl)-6,7-dihydro-5H-cyclopenta[d]pyrimidin-4-yl)-2,3-dihydrospiro[indene-1,3′-[1,4]oxazepan]-5′-one [Example 552]	39.2 nM
C[C@H]1[C@H](O)CN1c1nc(-c2ccc(OC(F)F)c([S@](C)(=N)=O)c2)c2c(n1)C(F)(F)CC2 (single isomer, unassigned) [Example 534]	32 nM
COc1c(F)cc(-c2nc(N3C[C@@H](O)[C@@H]3C)nc3c2CCC3(F)F)cc1[S@](C)(=N)=O (single isomer, unassigned) [Example 537]	21.4 nM
COc1ccc(-c2nc(N3C[C@@H](O)[C@@H]3C)nc3c2CCC3(F)F)cc1[S@](=N)(=O)C1CC1 (single isomer, unassigned) [Example 540]	13.5 nM
CS(=O)(=O)N[C@H]1COc2cc(-c3nc(N4CC[C@H]4C(F)F)nc4c3CCC4(F)F)ccc21 (single isomer, unassigned) [Example 546]	23.9 nM
NC(=O)c1ccc(-c2nc(N3CC4(CCC4)C3)nc3c2CCC3)cc1 [Example 416, 4-(2-(2-azaspiro[3.3]heptan-2-yl)-6,7-dihydro-5H-cyclopenta[d]pyrimidin-4-yl)benzamide]	> 5000 nM
NC(=O)c1ccc(-c2nc(N3CC4(COC4)C3)nc3c2CCC3)cc1 [Example 417, 4-(2-(2-oxa-6-azaspiro[3.3]heptan-6-yl)-6,7-dihydro-5H-cyclopenta[d]pyrimidin-4-yl)benzamide]	> 5000 nM
C[C@H]1CCC(=O)N1c1nc2c(c(-c3ccc(C(N)=O)cc3)n1)CCC2 [Example 419, (S)-4-(2-(2-methyl-5-oxopyrrolidin-1-yl)-6,7-dihydro-5H-cyclopenta[d]pyrimidin-4-yl)benzamide]	> 5000 nM
C[C@H]1[C@H](O)CN1c1nc2c(c(-c3ccc4cnc(N)cc4c3)n1)CCC2 [Example 448, (2S,3R)-1-[4-(3-amino-6-isoquinolyl)-6,7-dihydro-5H-cyclopenta[d]pyrimidin-2-yl]-2-methyl-azetidin-3-ol]	121 nM
N#CC1CCN1c1nc2c(c(-c3ccc(C(N)=O)cc3)n1)CCC2 (stereo not drawn) [Example 458, 4-(2-(2-cyanoazetidin-1-yl)-6,7-dihydro-5H-cyclopenta[d]pyrimidin-4-yl)benzamide]	57.2 nM
C[C@H]1[C@H](O)CN1c1nc(-c2ccc3c(c2)CC[C@@]32NC(=O)NC2=O)c2c(n1)C(F)(F)CC2 [Example 485, (R)-5′-(7,7-difluoro-2-((2S,3R)-3-hydroxy-2-methylazetidin-1-yl)-6,7-dihydro-5H-cyclopenta[d]pyrimidin-4-yl)-2′,3′-dihydrospiro[imidazolidine-4,1′-indene]-2,5-dione]	22.6 nM
COc1c(F)cc(-c2nc(N3C[C@@H](O)[C@@H]3C)nc3c2CCC3(F)F)cc1S(C)(=N)=O (stereo partly drawn) [Example 535, (5-(7,7-difluoro-2-((2S,3R)-3-hydroxy-2-methylazetidin-1-yl)-6,7-dihydro-5H-cyclopenta[d]pyrimidin-4-yl)-3-fluoro-2-methoxyphenyl)(imino)(methyl)-λ^6-sulfanone]	15.8 nM
NC1(c2ccc(-c3nc(N4C[C@@H](O)[C@@H]4CF)nc4c3CCC4(F)F)cc2)COC1 [Example 677, (2R,3R)-1-[4-[4-(3-aminooxetan-3-yl)phenyl]-7,7-difluoro-5,6-dihydroeyelopenta[d]pyrimidin-2-yl]-2-(fluoromethyl)azetidin-3-ol]	4.8 nM
C[C@H]1CCN1c1nc2c(c(-c3ccc(Cl)c(S(C)(=N)=O)c3)n1)CCC2 (stereo partly drawn) [Example 727]	> 500 nM

Continued, values first:

IC50	Molecule
6.1 nM	COc1c(F)cc(-c2nc(N3C[C@@H](O)[C@@H]3C)nc3c2CCC3(F)F)cc1[S@@](C)(=N)=O (single isomer, unassigned) [Example 536]
5 nM	C[C@H]1[C@H](O)CN1c1nc(-c2ccc3c(c2)CC[C@]32COCC(=O)N2)c2c(n1)C(F)(F)CC2 (single isomer, unassigned) [Example 550]
2.9 nM	C[C@H]1[C@H](O)CN1c1nc(-c2ccc3c(c2)C(F)(F)C[C@H]3NS(C)(=O)=O)c2c(n1)C(F)(F)CC2 (single isomer, unassigned) [Example 635]
1.4 nM	C[C@H]1[C@H](F)CN1c1nc(-c2ccc3c(c2)S(=O)(=O)C[C@H]3NS(C)(=O)=O)c2c(n1)C(F)(F)CC2 (single isomer, unassigned) [Example 680]
0.5 nM	C[C@@H]1N(c2nc(-c3ccc4c(c3)S(=O)(=O)C[C@@H]4NS(C)(=O)=O)c3c(n2)C(F)(F)CC3)CC1(F)F (single isomer, unassigned) [Example 681]
4 nM	C[C@@H]1N(c2nc(-c3ccc4c(c3)S(=O)(=O)C[C@H]4NS(C)(=O)=O)c3c(n2)C(F)(F)CC3)CC1(F)F (single isomer, unassigned) [Example 682]
4.3 nM	C[C@H]1CCN1c1nc(-c2ccc([C@H](N)CS(C)(=O)=O)cc2)c2c(n1)C(F)(F)CC2 (single isomer, unassigned) [Example 775]
2.8 nM	C[C@H]1CCN1c1nc(-c2ccc([C@@H](N)CS(C)(=O)=O)cc2)c2c(n1)C(F)(F)CC2 (single isomer, unassigned) [Example 776]
1.2 nM	CS(=O)(=O)N[C@H]1COc2cc(-c3nc(N4C[C@@H](O)[C@@H]4CF)nc4c3CCC4(F)F)ccc21 [Example 484, N-((R)-6-(7,7-difluoro-2-((2R,3R)-2-(fluoromethyl)-3-hydroxyazetidin-1-yl)-6,7-dihydro-5H-cyclopenta[d]pyrimidin-4-yl)-2,3-dihydrobenzofuran-3-yl)methanesulfonamide]
2.3 nM	COc1ccc(-c2nc(N3C[C@@H](O)[C@@H]3C)nc3c2CCC3(F)F)cc1S(=N)(=O)C1CC1 (stereo partly drawn) [Example 538, cyclopropyl(5-(7,7-difluoro-2-((2S,3R)-3-hydroxy-2-methylazetidin-1-yl)-6,7-dihydro-5H-cyclopenta[d]pyrimidin-4-yl)-2-methoxyphenyl)(imino)-λ^6-sulfanone]
1.1 nM	CS(=O)(=O)N[C@H]1COc2cc(-c3nc(N4CCC4C(F)F)nc4c3CCC4(F)F)ccc21 (stereo partly drawn) [Example 544, N-((3R)-6-(2-(2-(difluoromethyl)azetidin-1-yl)-7,7-difluoro-6,7-dihydro-5H-cyclopenta[d]pyrimidin-4-yl)-2,3-dihydrobenzofuran-3-yl)methanesulfonamide]
0.9 nM	C[C@H]1CCN1c1nc(-c2ccc3c(c2)C(NS(C)(=O)=O)CC3)c2c(n1)C(F)(F)CC2 (stereo partly drawn) [Example 607]
2 nM	C[C@H]1[C@H](O)CN1c1nc(-c2ccc3c(c2)C(F)(F)CC3NS(C)(=O)=O)c2c(n1)C(F)(F)CC2 (stereo partly drawn) [Example 633, N-(5-(7,7-difluoro-2-((2S,3R)-3-hydroxy-2-methylazetidin-1-yl)-6,7-dihydro-5H-cyclopenta[d]pyrimidin-4-yl)-3,3-difluoro-2,3-dihydro-1H-inden-1-yl)methanesulfonamide]
3.8 nM	C[C@H]1CCN1c1nc(-c2cccc(NS(C)(=N)=O)c2)c2c(n1)C(F)(F)CC2 (stereo partly drawn) [Example 684, 4-[3-[(amino-methyl-oxo-λ^6-sulfanylidene)amino]phenyl]-7,7-difluoro-2-[(2S)-2-methylazetidin-1-yl]-5,6-dihydrocyclopenta[d]pyrimidine]
3.8 nM	C[C@H]1[C@H](O)CN1c1nc(-c2cc3c(c(S(C)(=N)=O)c2)OCC3)c2c(n1)C(F)(F)CC2 (stereo partly drawn) [Example 716, (5-(7,7-difluoro-2-((2S,3R)-3-hydroxy-2-methylazetidin-1-yl)-6,7-dihydro-5H-cyclopenta[d]pyrimidin-4-yl)-2,3-dihydrobenzofuran-7-yl)(imino)(methyl)-λ^6-sulfanone]
